Columns and labels:
TC-1 tumor [1] = assay: TC-1 tumor model: tumor growth, survival and circulating CD8 T cells (STINGa 2); assay type: in vivo, C57BL/6 mice; details: TC-1 model, complex day 6 and 13, STINGa 2 s.c. days 6, 10, 13 and 17
Method: (§1) C57BL/6 mice were implanted s.c. with 1×10^5 TC-1 tumor cells in the back and mice were stratified according to tumor size on day 6 tumor implantation. Alternatively, C57BL/6J mice were injected i.v. with 1×10^5 B16-OVA cells. Mice were vaccinated two times (at day 6 and 13 post tumor implantation) by s.c. injection of 10 nmoles of vaccine at the tail base. At the same time of vaccination, mice received 25 μg of STING agonist administered via 2×50 μl s.c. injections in each side of the low back. Alternatively, at the same time of vaccination, mice received 10 μg of STING agonist 2 administered via 2×100 μl s.c. injections in each side of the low back.
(§2) Tumor size was measured with a caliper and mice were euthanized when tumor reached a volume of 1000 mm^3. Tumor volume was calculated with the following formula:
(§3) V=length×length×width×Pi/6
Similarly as described above, 10^5 TC-1 cells were implanted on the back of C57BL/6 mice and assigned to distinct groups (control (no treatment); complex comprising a cell penetrating peptide, at least one antigen or antigenic epitope, and a TLR peptide agonist (Z13Mad25Anaxa); STING agonist STINGa 2; and a combination thereof). […]

TC-1 tumor [2] = assay: TC-1 tumor model: tumor growth and survival (STINGa); assay type: in vivo, C57BL/6 mice; details: TC-1 model, treated twice at one-week interval
Method: as §1, §2, §3
10^5 TC-1 cells were implanted on the back of C57BL/6 mice. When tumors were visible, mice were treated twice at one-week interval as described above in therapeutic settings of the TC-1 tumor model with (i) the complex comprising a cell penetrating peptide, at least one antigen or antigenic epitope, and a TLR peptide agonist (Z13Mad25Anaxa); (ii) the STING agonist; or (iii) a combination of both.

TC-1 tumor [3] = assay: TC-1 tumor model: antigen-specific CD8 T cell responses; assay type: in vivo, C57BL/6 mice
Method: as §1
(§4) TC-1 tumors were harvested at day 20 post implantation and tumor-infiltrating leucocytes (TIL) were purified using Miltenyi tumor dissociation kit following manufacturer instruction. Briefly, tumor tissues were cut into small pieces, and resuspended in DMEM medium containing tumor dissociating enzymes (Miltenyi). Tumors were digested on a Gentle MACS with heating system (Miltenyi) using solid tumor program. Enzymatic digestion was stopped by adding cold PBS 0.5% BSA solution and keeping cells on ice. Digested tumors were passed through a 70 μm to eliminate remaining undigested tissue. CD45+ cells were purified using CD45 TIL microbeads (Miltenyi) following manufacturer protocol. Purified CD45+ cells were used for flow cytometry staining or ex vivo T cells stimulation.
(§5) Peripheral blood and spleen mononuclear cell suspensions from mice were isolated using Ficoll-Paque gradient (GE Healthcare) before flow cytometry analysis, ex vivo stimulation or TCR avidity assay.
TILs, LILs or splenocytes were numerated and 1×10^5 or 2×10^6 cells were plated per condition, respectively. […]
(§6) The following antibodies were used: CD45 (30-F11), CD11b (M1/70), KLRG1 (2F1), CD103 (M290), NKg2a (20d5), Ly6C (AL-21), Ly6G (1A8), PD-L1 (MIH5), I-A/I-E (M5/114), CD11c (HL3), PDCA1 (927), CD64 (X54-5/7.1), B220 (RA3-6B2), CD24 (M1/69), CD4 (GK1.5), CD25 (3C7), CD3 (500A2), NKp46 (29A1.4), TNF-α (MP6-XT22), IFN-γ (XMG1.2), H2-Kb (AF6-88.5) and H2-db (28-14-8) were from BD Biosciences; Tim3 (RMT3-23), PD-1 (29F.1A12), CD38 (90), Gr-1 (RB6-8C5), CD206 (C068C2), CD68 (FA-11) were from BioLegend; Ki67 (solA15), FoxP3 (FJK-16s), T-bet (4B10), GATA-3 (TWAJ) and RORγt (AFKJS-9) were from ThermoFisher Scientific; Granzyme B (REA226) was from Miltenyi; CD8 (KT15) was from MBL. […] Cells were analyzed using an Attune NxT flow cytometer (ThermoFisher Scientific) Kaluza (Beckman Coulter) software.
To this end, 10^5 TC-1 tumor cells were implanted on the back of C57BL/6 mice. […] One week after the last treatment, mice were sacrificed, tumor harvested, and CD8 T cells presence and phenotype was analyzed by FACS staining.

[4] = tested on: HPV-E7-specific CD8 T cells, splenic CD8 and CD4 T cells; assay: Immunogenicity in tumor-free mice: multimer staining and flow cytometry of blood and splenocytes; assay type: in vivo, C57BL/6 mice
Method: as §5
TILs, LILs or splenocytes were numerated and 1×10^5 or 2×10^6 cells were plated per condition, respectively. Cells were incubated with HPV-CD4, HPV-CD8, OVA-CD8 or OVA-CD4 epitope peptide, with PMA/ionomycin as a positive control or without any stimulant as a negative control, in presence of Golgi stop (BD biosciences) and anti-CD107a for 6 hours. […]
as §6, with “software. […]” for “software.”

TC-1 tumor [5] = assay: TC-1 tumor model: intra-tumoral CD4 T cell responses; assay type: in vivo, C57BL/6 mice
Method: as §1
as §4, with “Purified CD45+ cells were used for flow cytometry staining or ex vivo T cells stimulation.” left out
In view thereof, intra-tumoral CD4 T cells were monitored next. […]

B16-OVA tumor = assay: B16-OVA pulmonary metastases tumor model; assay type: in vivo, C57BL/6 mice; details: B16-OVA i.v., day 20
Method: as §1
B16-OVA tumor bearing mice were sacrificed at day 20, lungs were perfused with a saline solution and the number of lung metastasis was counted.
B16-OVA tumor bearing mice were perfused with a saline solution to eliminate blood from the lungs before their collection. Lung-infiltrating leucocytes (LILs) were purified using mouse tumor dissociation kit from Miltenyi, following manufacturer instruction. […]
Briefly, 10^5 B16-OVA cells were injected intravenously into C57BL/6 mice. […] At day 20 (10 days after the last vaccination), lungs were perfused to eliminate blood, the number of pulmonary metastasis was counted, and lung infiltrating lymphocytes (LILs) were analyzed.

IFN-α = assay: Quantification of serum interferon-α (ELISA) in tumor-free mice; assay type: in vivo, C57BL/6 mice; details: 4 and 24 hours post first vaccination, s.c.
Method: Blood was collected from mouse tail vein and serum was isolated by centrifugation using Starstedt tubes. The concentration of IFN-α cytokine was measured using commercial ELISA kits according to the manufacturer's recommendations (PBL Assay Science).
In order to evaluate the immunogenicity of the combination, tumor-free C57BL/6 mice were vaccinated twice at 2 weeks interval (at day 0 and 14) by s.c. injection of 10 nmoles of Z13Mad25Anaxa (an exemplified a complex comprising a cell penetrating peptide, at least one antigen or antigenic epitope, and a TLR peptide agonist, which contains human papilloma virus (HPV)-derived CD4 and CD8 epitopes. At about the same time of vaccination, mice received 25 μg of STING agonist ADU-S100 administered via 2×50 μl s.c. injections in each side of the low back. Serum was collected 4 and 24 hours after the first vaccination and IFN-α concentration was measured by ELISA. Whole blood was collected at day 21 and used for antigen-specific CD8 T cells measurement by multimer flow cytometry staining. At the same time, spleens were harvested and splenocytes used for ex vivo stimulation and intracellular cytokine production was analyzed by flow cytometry. Alternatively, splenocytes were used for TCR avidity assay.

TC-1 tumor [6] = assay: TC-1 tumor model: tumor microenvironment composition by FACS; assay type: in vivo, C57BL/6 mice; details: systemic administration
Method: as §1
as §4, with “Purified CD45+ cells were used for flow cytometry staining or ex vivo T cells stimulation.” left out

TC-1 tumor [7] = assay: TC-1 tumor model: intra-tumoral expression of PD-L1, MHC-I and MHC-II; assay type: in vivo, C57BL/6 mice
Method: as §1
TC-1 tumors were harvested at day 20 post implantation and tumor-infiltrating leucocytes (TIL) were purified using Miltenyi tumor dissociation kit following manufacturer instruction. Briefly, tumor tissues were cut into small pieces, and resuspended in DMEM medium containing tumor dissociating enzymes (Miltenyi). Tumors were digested on a Gentle MACS with heating system (Miltenyi) using solid tumor program. […]
Furthermore, down-regulation of MHC-I expression on tumor cells is one of the main mechanism of immune evasion. Therefore, the intra-tumoral expression of PD-L1 and MHC-I as well as MHC-II was also monitored in the TC-1 tumor model as described above.

MC38-CEA tumor = MC38-CEA tumor model: CEA-specific CD8 T cells by multimer staining; assay type: in vivo, C57BL/6J mice; details: multimer staining one week after second vaccination, MC38-CEA tumor-bearing mice
Method: Alternatively, female C57BL/6J mice were implanted with 5×10^5 MC38-CEA tumor cells subcutaneously on the back of the mouse and vaccinated twice at the base of the tail (at day 6 and 13 post tumor implantation) by s.c. injection of 10 nmoles of vaccine, 25 μg of STINGa (ADU-S100) or a combination of the two.
Female C57BL/6J mice were implanted with 5*10^5 MC38-CEA tumor cells subcutaneously on the back of the mouse. At day 6 and day 13 post tumor implantation, mice were vaccinated with 10 nmol of ATP128, 25 μg of a STING agonist (ADU-S100) or a combination of the two. Both the ATP128 vaccine and the STING agonist were injected subcutaneously at the base of the tail. One week after the second vaccination, mouse blood was collected from the tail vein and the frequency and the total number of CEA-specific CD8 T cells was analyzed by flow cytometry using a custom designed multimer.

In the case of `Nc1ncnc2c1ncn2[C@@H]1O[C@@H]2COP(=O)(S)O[C@@H]3[C@H](O)[C@@H](COP(=O)(S)O[C@H]2[C@H]1F)O[C@H]3n1cnc2c(=O)[nH]ncc21` (stereo partly drawn) [STINGa 2], the Survival (TC-1 tumor [1]) is reported as “only provided a slight improvement” and the Tumor growth (TC-1 tumor [1]) is reported as “only provided a slight improvement”.

`Nc1ncnc2c1ncn2[C@@H]1O[C@@H]2CO[P@@](=O)([S][Na])O[C@@H]3[C@H](O)[C@@H](CO[P@@](=O)([S][Na])O[C@H]2[C@H]1O)O[C@H]3n1cnc2c(N)ncnc21` [STINGa, reference compound] was tested, and the “Tumor development / tumor growth” value (TC-1 tumor [2]) was “only a small effect on tumor growth”, the “HPV-specific proportion of tumor-infiltrating CD8 T cells (in words)” value (TC-1 tumor [3]; TC-1 tumor) was “did not modulate” and the “Expression of exhaustion markers PD-1 and Tim-3 by tumor-infiltrating CD8 T cells” value (TC-1 tumor [3]; TC-1 tumor, flow cytometry) was “expressed only PD-1 or no exhaustion marker at all”. The “CD8 T cells tumor infiltration” value (TC-1 tumor [3]; TC-1 tumor, one week after last treatment) was “did not modulate”, the “Circulating HPV-specific CD8 T cells (frequency and number)” value (TC-1 tumor [3]; blood, one week after last treatment, TC-1 tumor-bearing mice) was “no effect” and the “Proportion of splenic CD8 T cells” value [4] was “higher proportion of splenic CD8 T cells”. The “Cytokine secretion by CD8 T cells after ex vivo PMA/Ionomycin restimulation” value ([4]; splenocytes) was “increased cytokine secretion”, the “Tumor infiltration by CD4 T cells” value (TC-1 tumor [5]) was “no effect on intra-tumoral CD4 T cells recruitment” and the “Number of metastatic nodules per lung” value (B16-OVA tumor) was “no effect”. For the same compound, the “Serum IFN-α level (systemic type I interferon response)” value (IFN-α) was “high IFN-α serum levels peaking 4 hours post injection and decreasing already 24 hours later”, the “Composition of TME” value (TC-1 tumor [6]) was “does not affect the composition of TME” and the “Intra-tumoral immunogenicity (modulation of TME)” value (TC-1 tumor [7]) was “no effect was observed”.

“ATP128: Vaccine construct (SEQ ID NO: 54) containing CEA, survivin and ASCL2 epitopes, cell penetrating peptide and TLR peptide agonist” was tested, and the “CEA-specific CD8 T cell response” value (MC38-CEA tumor) was “elicits CEA-specific CD8 T cells”.

Reference: patent US20220111028A1, “Combination Of A STING Agonist And A Complex Comprising A Cell Penetrating Peptide, A Cargo And A TLR Peptide Agonist” (priority 2020, published 2022)
